Tests used:
RAW264.7 = assay: Inhibition of LPS-induced nitric oxide production in mouse RAW264.7 cells assessed as nitrite levels in supernatant after 24 hrs by griess assay; type: functional, cell-based
Mus musculus [1] = assay: Antiinflammatory activity against carrageenan-induced paw edema in ICR mouse at 50 mg/kg, ip administered 30 mins before carrageenan challenge assessed after 0.5 hrs; type: functional; conditions: route intraperitoneal
Mus musculus [2] = assay: Antiinflammatory activity against carrageenan-induced paw edema in ICR mouse at 50 mg/kg, ip administered 30 mins before carrageenan challenge assessed after 1 hr; type: functional; conditions: route intraperitoneal
Mus musculus [3] = assay: Antiinflammatory activity against carrageenan-induced paw edema in ICR mouse at 50 mg/kg, ip administered 30 mins before carrageenan challenge assessed after 2 hrs; type: functional; conditions: route intraperitoneal
Mus musculus [4] = assay: Antiinflammatory activity against carrageenan-induced paw edema in ICR mouse at 50 mg/kg, ip administered 30 mins before carrageenan challenge assessed after 3 hrs; type: functional; conditions: route intraperitoneal
Mus musculus [5] = assay: Antiinflammatory activity against carrageenan-induced paw edema in ICR mouse at 50 mg/kg, ip administered 30 mins before carrageenan challenge assessed after 4 hrs; type: functional; conditions: route intraperitoneal
Mus musculus [6] = assay: Antiinflammatory activity against carrageenan-induced paw edema in ICR mouse at 50 mg/kg, ip administered 30 mins before carrageenan challenge assessed after 5 hrs; type: functional; conditions: route intraperitoneal
Mus musculus [7] = assay: Antiinflammatory activity against carrageenan-induced paw edema in ICR mouse at 100 mg/kg, ip administered 30 mins before carrageenan challenge assessed after 0.5 hrs; type: functional; conditions: route intraperitoneal
Mus musculus [8] = assay: Antiinflammatory activity against carrageenan-induced paw edema in ICR mouse at 100 mg/kg, ip administered 30 mins before carrageenan challenge assessed after 1 hr; type: functional; conditions: route intraperitoneal
Mus musculus [9] = assay: Antiinflammatory activity against carrageenan-induced paw edema in ICR mouse at 100 mg/kg, ip administered 30 mins before carrageenan challenge assessed after 2 hrs; type: functional; conditions: route intraperitoneal
Mus musculus [10] = assay: Antiinflammatory activity against carrageenan-induced paw edema in ICR mouse at 100 mg/kg, ip administered 30 mins before carrageenan challenge assessed after 3 hrs; type: functional; conditions: route intraperitoneal
Mus musculus [11] = assay: Antiinflammatory activity against carrageenan-induced paw edema in ICR mouse at 100 mg/kg, ip administered 30 mins before carrageenan challenge assessed after 4 hrs; type: functional; conditions: route intraperitoneal
Mus musculus [12] = assay: Antiinflammatory activity against carrageenan-induced paw edema in ICR mouse at 100 mg/kg, ip administered 30 mins before carrageenan challenge assessed after 5 hrs; type: functional; conditions: route intraperitoneal
Mus musculus [13] = assay: Antiinflammatory activity against carrageenan-induced paw edema in ICR mouse at 4 mg/kg, ip administered 30 mins before carrageenan challenge assessed after 0.5 hrs; type: functional; conditions: route intraperitoneal
Mus musculus [14] = assay: Antiinflammatory activity against carrageenan-induced paw edema in ICR mouse at 4 mg/kg, ip administered 30 mins before carrageenan challenge assessed after 1 hr; type: functional; conditions: route intraperitoneal
Mus musculus [15] = assay: Antiinflammatory activity against carrageenan-induced paw edema in ICR mouse at 4 mg/kg, ip administered 30 mins before carrageenan challenge assessed after 2 hrs; type: functional; conditions: route intraperitoneal
Mus musculus [16] = assay: Antiinflammatory activity against carrageenan-induced paw edema in ICR mouse at 4 mg/kg, ip administered 30 mins before carrageenan challenge assessed after 3 hrs; type: functional; conditions: route intraperitoneal
Mus musculus [17] = assay: Antiinflammatory activity against carrageenan-induced paw edema in ICR mouse at 4 mg/kg, ip administered 30 mins before carrageenan challenge assessed after 4 hrs; type: functional; conditions: route intraperitoneal
Mus musculus [18] = assay: Antiinflammatory activity against carrageenan-induced paw edema in ICR mouse at 4 mg/kg, ip administered 30 mins before carrageenan challenge assessed after 5 hrs; type: functional; conditions: route intraperitoneal

SMILES | Activity (RAW264.7) | Activity (Mus musculus [1]) [%] | Activity (Mus musculus [2]) [%] | Activity (Mus musculus [3]) [%] | Activity (Mus musculus [4]) [%] | Activity (Mus musculus [5]) [%] | Activity (Mus musculus [6]) [%] | Activity (Mus musculus [7]) [%] | Activity (Mus musculus [8]) [%] | Activity (Mus musculus [9]) [%] | Activity (Mus musculus [10]) [%] | Activity (Mus musculus [11]) [%] | Activity (Mus musculus [12]) [%] | Activity (Mus musculus [13]) [%] | Activity (Mus musculus [14]) [%] | Activity (Mus musculus [15]) [%] | Activity (Mus musculus [16]) [%] | Activity (Mus musculus [17]) [%] | Activity (Mus musculus [18]) [%]
C[C@@]12C[C@H](c3ccoc3)OC(=O)[C@@H]1CC[C@@]1(CO[C@@H]3O[C@H](CO)[C@@H](O)[C@H](O)[C@H]3O)C(=O)C=CC[C@H]12 | Dose-dependent effect |  |  |  |  |  |  |  |  |  |  |  |  |  |  |  |  |  | 
C[C@@]12C[C@H](c3ccoc3)OC(=O)[C@@H]1[C@@H](O)C[C@]1(C)[C@H]2[C@@H]2OC(=O)[C@@]1(O)[C@H]1O[C@@H]21 | Dose-dependent effect |  |  |  |  |  |  |  |  |  |  |  |  |  |  |  |  |  | 
C[C@@]12[C@H]3CC=C[C@@]1(O[C@@H]1O[C@H](CO)[C@@H](O)[C@H](O)[C@H]1O)C(=O)O[C@@H]2C[C@]1(O)C(=O)O[C@H](c2ccoc2)C[C@@]31C | Dose-dependent effect |  |  |  |  |  |  |  |  |  |  |  |  |  |  |  |  |  | 
C[C@@]12C[C@H](c3ccoc3)OC(=O)[C@@H]1CC[C@]1(C)[C@H]2[C@@H]2OC(=O)[C@@]1(O)[C@H]1O[C@@H]21 [CHASMANTHIN] |  | 15.39 | 18.46 | 22.41 | 23.99 | 31.6 | 32.49 | 13.15 | 18.75 | 21.76 | 21.23 | 23.73 | 20.71 |  |  |  |  |  | 
C[C@@]12CC=C3C(=O)O[C@@H](c4ccoc4)C[C@@]3(C)[C@@H]1CC=CC2=O [FIBARURETIN D] |  | 19.44 | 24.17 | 25.18 | 21.55 | 20.67 | 20.5 | 17 | 20.91 | 22.79 | 21.47 | 23.67 | 23.41 |  |  |  |  |  | 
C[C@@]12C[C@H](c3ccoc3)OC(=O)C1=CC[C@]1(C)[C@H]2[C@H]2C=C[C@]1(O[C@@H]1O[C@H](CO)[C@@H](O)[C@H](O)[C@H]1O)C(=O)O2 [FIBLEUCINOSIDE] |  | 15.64 | 18.8 | 24.26 | 22.82 | 24.01 | 23.88 | 14.91 | 19.05 | 19.82 | 21.31 | 22.01 | 20.11 |  |  |  |  |  | 
C[C@@]12C[C@H](c3ccoc3)OC(=O)C1=CC[C@]1(C)[C@H]2[C@H]2C=C[C@]1(O)C(=O)O2 [FIBLEUCIN] |  | 11.8 | 13.12 | 17.97 | 21.61 | 25.29 | 25.6 | 14.56 | 17.79 | 20.68 | 24.44 | 26.19 | 26.02 |  |  |  |  |  | 
C[C@@]12C[C@@H](c3ccoc3)OC(=O)[C@H]1CC[C@@H]1[C@H]2C[C@@H]2OC(=O)[C@@]1(O)[C@@H]2O [FIBRAURETIN B] |  | 14 | 20.1 | 24.03 | 23.43 | 26.73 | 28.34 | 11.45 | 19.17 | 16.73 | 15.21 | 17.69 | 18.16 |  |  |  |  |  | 
C[C@@]12C[C@H](c3ccoc3)OC(=O)C1=CC[C@]1(C)[C@H]2[C@@H]2OC(=O)[C@@]1(O[C@@H]1O[C@H](CO)[C@@H](O)[C@H](O)[C@H]1O)[C@H]1O[C@@H]21 [FIBRAURINOSIDE] | Dose-dependent effect | 17.12 | 18.18 | 18.99 | 20.36 | 20.89 | 18.48 | 18.67 | 23.03 | 25.07 | 25.03 | 25.25 | 24.8 |  |  |  |  |  | 
C[C@@]12C[C@H](c3ccoc3)OC(=O)C1=CC[C@]1(C)[C@H]2[C@@H]2OC(=O)[C@@]1(O)[C@H]1O[C@@H]21 [FIBRAURIN] | Dose-dependent effect | 19.68 | 27.17 | 28.66 | 30.5 | 32.19 | 33.57 | 10.1 | 12.44 | 14 | 10.85 | 11.41 | 10.61 |  |  |  |  |  | 
COC(=O)C1=CCC[C@H]2[C@]3(C)C[C@@H](c4ccoc4)OC(=O)[C@H]3CC[C@@]12C [FLORIBUNDIC ESTER] |  | 16.27 | 20.95 | 21.51 | 21.84 | 21.85 | 20.18 | 13.07 | 15.46 | 16.78 | 13.95 | 14.9 | 13.07 |  |  |  |  |  | 
COc1ccc2c(c1)c(CC(=O)O)c(C)n2C(=O)c1ccc(Cl)cc1 [INDOMETHACIN] |  |  |  |  |  |  |  |  |  |  |  |  |  | 20.77 | 21.48 | 19.53 | 18.52 | 17.04 | 16.3

From ChEMBL document CHEMBL1142486, “Anti-inflammatory activities of furanoditerpenoids and other constituents from Fibraurea tinctoria” (2008)
